According to ChEMBL document CHEMBL1201862, “PubChem BioAssay data set” (2004):
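Cells were grown in 96-well plates and exposed to each compound for 48 hours at five concentrations; endpoints were interpolated linearly between bracketing concentrations, or set to the highest concentration if not reached. Here, GI50 denotes the concentration required for 50% inhibition of growth.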 The source made the active and inactive calls. Rule as the data show it: active = GI50 up to about 1.1 µM and inactive = higher.

Assays:
Experiment in all cases: growth of human tumour cells (NCI), 48 h
KM12 = tested on: KM12
OVCAR-4 = tested on: OVCAR-4
HCC 2998 = tested on: HCC 2998
MOLT-4 = tested on: MOLT-4
SK-MEL-5 = tested on: SK-MEL-5
A549 = tested on: A549
OVCAR-5 = tested on: OVCAR-5
U-251 = tested on: U-251
LOX IMVI = tested on: LOX IMVI
786-0 = tested on: 786-0
HCT-116 = tested on: HCT-116
UO-31 = tested on: UO-31
K562 = tested on: K562
NCI-H522 = tested on: NCI-H522
SK-MEL-2 = tested on: SK-MEL-2
SF-539 = tested on: SF-539

SMILES | GI50 (KM12) | GI50 (OVCAR-4) | GI50 (HCC 2998) | GI50 (MOLT-4) | GI50 (SK-MEL-5) | GI50 (A549) | GI50 (OVCAR-5) | GI50 (U-251) | GI50 (LOX IMVI) | GI50 (786-0) | GI50 (HCT-116) | GI50 (UO-31) | GI50 (K562) | GI50 (NCI-H522) | GI50 (SK-MEL-2) | GI50 (SF-539)
CCCCC1(OC(=O)CCC(=O)O)CCC2(CCC(C)C(C/C=C(C)/C=C/C(O)C(C)/C=C/C(=O)O)O2)OC1CC/C(C)=C/C(=O)O (centres undefined) | 3.1 µM (inactive) | 2.1 µM (inactive) | 3.33 µM (inactive) | 5.02 µM (inactive) | 1.61 µM (inactive) | 12.2 µM (inactive) | 3.94 µM (inactive) | 4.35 µM (inactive) | 1.66 µM (inactive) | 3.52 µM (inactive) | 6.19 µM (inactive) | 2.97 µM (inactive) | 2.8 µM (inactive) | 2.77 µM (inactive) | 1.71 µM (inactive) | 1.77 µM (inactive)
O=C(NN1C(=O)C(Cl)C1c1cccc(Cl)c1)c1ccccc1O (centres undefined) | > 100 µM (inactive) | > 100 µM (inactive) | – | > 100 µM (inactive) | > 100 µM (inactive) | > 100 µM (inactive) | – | > 100 µM (inactive) | > 100 µM (inactive) | > 100 µM (inactive) | > 100 µM (inactive) | > 100 µM (inactive) | > 100 µM (inactive) | > 100 µM (inactive) | > 100 µM (inactive) | > 100 µM (inactive)
CCCC(C(=O)OC)C1N/C(=N/C#N)N(Cc2ccccc2)C1=O (centres undefined) | > 100 µM (inactive) | > 100 µM (inactive) | > 100 µM (inactive) | > 100 µM (inactive) | > 100 µM (inactive) | > 100 µM (inactive) | > 100 µM (inactive) | > 100 µM (inactive) | > 100 µM (inactive) | > 100 µM (inactive) | > 100 µM (inactive) | 67.1 µM (inactive) | 66.4 µM (inactive) | > 100 µM (inactive) | > 100 µM (inactive) | –
COc1cc2cnc3c4cc(O)ccc4ccc3c2cc1OC | 51.4 µM (inactive) | 26.7 µM (inactive) | 91 µM (inactive) | 31.1 µM (inactive) | > 100 µM (inactive) | > 100 µM (inactive) | > 100 µM (inactive) | 10.8 µM (inactive) | 42.6 µM (inactive) | 61.8 µM (inactive) | > 100 µM (inactive) | > 100 µM (inactive) | 19.7 µM (inactive) | 15.6 µM (inactive) | 26.4 µM (inactive) | 63 µM (inactive)
CS(=O)(=O)NNS(=O)(=O)c1ccc(F)cc1 | > 100 µM (inactive) | > 100 µM (inactive) | > 100 µM (inactive) | > 100 µM (inactive) | > 100 µM (inactive) | > 100 µM (inactive) | – | > 100 µM (inactive) | > 100 µM (inactive) | > 100 µM (inactive) | > 100 µM (inactive) | > 100 µM (inactive) | > 100 µM (inactive) | > 100 µM (inactive) | > 100 µM (inactive) | > 100 µM (inactive)
CC1=C(C(=O)CC(=O)C(=O)Nc2cccc(C)c2C)Sc2ccccc2N1 | > 100 µM (inactive) | > 100 µM (inactive) | > 100 µM (inactive) | > 100 µM (inactive) | > 100 µM (inactive) | > 100 µM (inactive) | > 100 µM (inactive) | > 100 µM (inactive) | > 100 µM (inactive) | > 100 µM (inactive) | > 100 µM (inactive) | > 100 µM (inactive) | > 100 µM (inactive) | > 100 µM (inactive) | > 100 µM (inactive) | > 100 µM (inactive)
CCN(CC)CCC1(C2CCCCC2)CCC(=O)NC1=O (centres undefined) | > 100 µM (inactive) | > 100 µM (inactive) | > 100 µM (inactive) | > 100 µM (inactive) | > 100 µM (inactive) | > 100 µM (inactive) | > 100 µM (inactive) | > 100 µM (inactive) | > 100 µM (inactive) | > 100 µM (inactive) | > 100 µM (inactive) | > 100 µM (inactive) | > 100 µM (inactive) | > 100 µM (inactive) | > 100 µM (inactive) | > 100 µM (inactive)
Cc1c2ccncc2c(C)c2c1[nH]c1ccc(OCC(F)(F)F)cc12 | 1.36 µM (inactive) | 2.03 µM (inactive) | – | 0.824 µM (active) | 1.91 µM (inactive) | 1.79 µM (inactive) | 1.53 µM (inactive) | 1.6 µM (inactive) | 1.61 µM (inactive) | 1.47 µM (inactive) | 1.08 µM (active) | 1.73 µM (inactive) | 1.08 µM (active) | 1.65 µM (inactive) | 1.58 µM (inactive) | 1.75 µM (inactive)
Cc1cccc(N2C(=O)C(Cl)=C(Cl)C2=O)c1 | > 100 µM (inactive) | > 46.3 µM (inactive) | > 100 µM (inactive) | 33.9 µM (inactive) | > 100 µM (inactive) | > 100 µM (inactive) | > 100 µM (inactive) | > 100 µM (inactive) | > 100 µM (inactive) | > 54.1 µM (inactive) | 38.6 µM (inactive) | > 100 µM (inactive) | 35.3 µM (inactive) | 8.91 µM (inactive) | > 100 µM (inactive) | > 100 µM (inactive)
COC(=O)C1[C@H](c2cc(OC)c(OC)c(OC)c2)OC(=O)C1(C(=O)OC)C(=O)c1ccc2c(c1)OCO2 (some centres undefined) | > 100 µM (inactive) | > 100 µM (inactive) | > 100 µM (inactive) | > 100 µM (inactive) | > 100 µM (inactive) | > 100 µM (inactive) | > 100 µM (inactive) | > 100 µM (inactive) | > 100 µM (inactive) | > 100 µM (inactive) | > 100 µM (inactive) | > 100 µM (inactive) | > 100 µM (inactive) | > 100 µM (inactive) | – | > 100 µM (inactive)
O=C1NC(=O)/C(=N\c2cccc3c(=O)[nH][nH]c(=O)c23)C(c2nc3ccccc3s2)C1=O (centres undefined) | > 100 µM (inactive) | > 100 µM (inactive) | 89.7 µM (inactive) | 71.1 µM (inactive) | > 100 µM (inactive) | > 100 µM (inactive) | – | > 100 µM (inactive) | – | > 100 µM (inactive) | > 100 µM (inactive) | > 100 µM (inactive) | – | > 100 µM (inactive) | > 100 µM (inactive) | –
O=c1[nH]cc(COCCO)c(=O)[nH]1 | > 100 µM (inactive) | > 100 µM (inactive) | – | > 100 µM (inactive) | > 100 µM (inactive) | > 100 µM (inactive) | > 100 µM (inactive) | > 100 µM (inactive) | > 100 µM (inactive) | > 100 µM (inactive) | > 100 µM (inactive) | > 100 µM (inactive) | > 100 µM (inactive) | > 100 µM (inactive) | > 100 µM (inactive) | > 100 µM (inactive)
COC(=N)/C(=C1\OC(=N)C(c2ccc(Cl)cc2)=C1O)c1ccc(Cl)cc1 | > 100 µM (inactive) | > 100 µM (inactive) | > 100 µM (inactive) | > 100 µM (inactive) | > 100 µM (inactive) | > 100 µM (inactive) | > 100 µM (inactive) | > 100 µM (inactive) | > 100 µM (inactive) | > 100 µM (inactive) | > 100 µM (inactive) | > 100 µM (inactive) | > 100 µM (inactive) | > 100 µM (inactive) | > 100 µM (inactive) | > 100 µM (inactive)
N=C(N)NS(=O)(=O)c1ccc(NC(=O)c2cccc3c(N)c4ccccc4nc23)cc1 | 8.57 µM (inactive) | > 100 µM (inactive) | > 100 µM (inactive) | 42 µM (inactive) | > 100 µM (inactive) | > 100 µM (inactive) | > 100 µM (inactive) | 99.8 µM (inactive) | > 100 µM (inactive) | > 100 µM (inactive) | > 100 µM (inactive) | 55.8 µM (inactive) | > 100 µM (inactive) | > 100 µM (inactive) | > 100 µM (inactive) | > 100 µM (inactive)
CCSc1nc2n(c(=S)n1)CCN2C | 21.4 µM (inactive) | 18.5 µM (inactive) | 16.3 µM (inactive) | 12.2 µM (inactive) | 15.2 µM (inactive) | 24.5 µM (inactive) | 21.4 µM (inactive) | 19.8 µM (inactive) | 18.4 µM (inactive) | 18.5 µM (inactive) | 15.7 µM (inactive) | 16.3 µM (inactive) | 27.7 µM (inactive) | 5.4 µM (inactive) | 19.1 µM (inactive) | 19.2 µM (inactive)
COc1ccc(C2NC(c3ccc(OC)cc3)C(C)C(=O)C2C)cc1 (centres undefined) | > 100 µM (inactive) | > 100 µM (inactive) | > 100 µM (inactive) | 46.7 µM (inactive) | – | – | 23.4 µM (inactive) | > 100 µM (inactive) | > 100 µM (inactive) | > 100 µM (inactive) | 91.8 µM (inactive) | 60 µM (inactive) | 42.7 µM (inactive) | > 100 µM (inactive) | > 100 µM (inactive) | > 100 µM (inactive)
COc1ccc2c(c1)[n+]([O-])c(-c1ccc(Cl)c(Cl)c1)c(N)[n+]2[O-] | 34.3 µM (inactive) | 28.7 µM (inactive) | – | 37.5 µM (inactive) | 16.5 µM (inactive) | 30.3 µM (inactive) | 36.8 µM (inactive) | 35.1 µM (inactive) | – | 36.7 µM (inactive) | 42.9 µM (inactive) | 39.7 µM (inactive) | 40.7 µM (inactive) | 14.3 µM (inactive) | 19.9 µM (inactive) | 23 µM (inactive)
COc1ccccc1N1C(=O)C2c3[nH]c4ccccc4c3C3CCC(C(C)(C)C)CC3C2C1=O (centres undefined) | – | > 100 µM (inactive) | > 100 µM (inactive) | > 100 µM (inactive) | > 100 µM (inactive) | > 100 µM (inactive) | – | > 100 µM (inactive) | – | > 100 µM (inactive) | > 100 µM (inactive) | > 100 µM (inactive) | > 100 µM (inactive) | > 100 µM (inactive) | – | > 100 µM (inactive)
